# Molecular target: T1, Recombinant human JAK2 catalytic domain (Homo sapiens, UniProt O60674)
# T1 construct: Recombinant human JAK2 catalytic domain (amino acids 808-1132; catalog number PV4210); GST; purchased Invitrogen PV4210
# Assay: JAK2 inhibition assay (polyGT substrate / Ulight-JAK1 peptide assay)
# Format: biochemical
# Conditions: Comparative Compounds (Table VIII)
# Experimental: Recombinant human JAK2 catalytic domain (amino acids 808-1132; catalog number PV4210) was purchased from Invitrogen. 0.025 mU of JAK2 is incubated with […] polyGT substrate (Sigma catalog number P0275) in kinase reaction buffer (5 mM MOPS pH 7.5, 9 mM MgAc, 0.3 mM EDTA, 0.06% Brij and 0.6 mM DTT, 1 μM non-radioactive ATP, 0.25 μCi ^33P-gamma-ATP (GE Healthcare, catalog number AH9968) final concentrations) with or without 5 μL containing test compound or vehicle (DMSO, 1% final concentration), in a total volume of 25 μL, in a polypropylene 96-well plate (Greiner, V-bottom). After 90 min at 30° C., reactions are stopped by adding of 25 μL/well of 150 mM phosphoric acid. All of the terminated kinase reaction is transferred to prewashed (75 mM phosphoric acid) 96 well filter plates (Perkin Elmer catalog number 6005177) using a cell harvester (Perkin Elmer). Plates are washed 6 times with 300 μL per well of a 75 mM phosphoric acid solution and the bottom of the plates is sealed. 40 μL/well of Microscint-20 is added, the top of the plates is sealed and readout is performed using the Topcount (Perkin Elmer). Kinase activity is calculated by subtracting counts per min (cpm) obtained in the presence of a positive control inhibitor (10 μM staurosporine) from cpm obtained in the presence of vehicle. The ability of a test compound to inhibit this activity is determined as:
# [formula] • RFU test compound=RFU determined for sample with test compound present • RFU control=RFU determined for sample with positive control inhibitor • RFU vehicle=RFU determined in the presence of vehicle
# Dose dilution series are prepared for the compounds enabling the testing of dose-response effects in the JAK2 assay and the calculation of the IC50 for each compound. Each compound is routinely tested at concentration of 20 μM followed by a 1/3 serial dilution, 8 points (20 μM-6.67 μM-2.22 μM-740 nM-247 nM-82 nM-27 nM-9 nM) in a final concentration of 1% DMSO. When potency of compound series increased, more dilutions are prepared and/or the top concentration is lowered (e.g. 5 μM, 1 μM).
# Recombinant human JAK2 (catalytic domain, amino acids 866-1154; catalog number PV4210) was purchased from Invitrogen. 0.0125 mU of JAK2 was incubated with 25 nM Ulight-JAK1 (tyr1023) peptide (Perkin Elmer catalog number TRF0121) in kinase reaction buffer (25 mM HEPES pH7.0, 0.01% Triton X-100, 7.5 mM MgCl2, 2 mM DTT, 7.5 μM ATP) with or without 4 μL containing test compound or vehicle (DMSO, 1% final concentration), in a total volume of 20 μL, in a white 384 Opti plate (Perkin Elmer, catalog number 6007290). After 60 min at room temperature, reactions were stopped by adding 20 μL/well of detection mixture (1× detection buffer (Perkin Elmer, catalog number CR97-100C), 0.5 nM Europium-anti-phosphotyrosine (PT66) (Perkin Elmer, catalog number AD0068), 10 mM EDTA). Readout is performed using the Envision with excitation at 320 nm and measuring emission at 615 nm (Perkin Elmer). Kinase activity was calculated by subtracting relative fluorescence units (RFU) obtained in the presence of a positive control inhibitor (10 μM staurosporine) from RFU obtained in the presence of vehicle. The ability of a test compound to inhibit this activity was determined as: Percentage inhibition=((RFU determined for sample with test compound present−RFU determined for sample with positive control inhibitor) divided by (RFU determined in the presence of vehicle−RFU determined for sample with positive control inhibitor))*100.
# Dose dilution series are prepared for compound enabling the testing of dose-response effects in the JAK2 assay and the calculation of the IC50 for the compound. Each compound is routinely tested at concentration of 20 μM followed by a 1/5 serial dilution, 10 points in a final concentration of 1% DMSO. When potency of compound series increases, more dilutions are prepared and/or the top concentration are lowered (e.g. 5 μM, 1 μM). […]
# T1 sequence (O60674 808-1132): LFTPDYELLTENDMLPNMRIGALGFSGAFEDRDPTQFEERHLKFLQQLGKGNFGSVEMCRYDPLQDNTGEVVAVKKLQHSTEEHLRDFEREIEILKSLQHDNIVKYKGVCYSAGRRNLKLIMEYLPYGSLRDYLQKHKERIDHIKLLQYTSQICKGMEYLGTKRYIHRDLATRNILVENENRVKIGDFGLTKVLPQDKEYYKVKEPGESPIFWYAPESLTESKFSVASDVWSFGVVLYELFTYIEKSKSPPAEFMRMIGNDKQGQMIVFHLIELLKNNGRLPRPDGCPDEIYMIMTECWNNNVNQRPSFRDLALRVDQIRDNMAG
row,IC50 [nM],Compound
1,> 500,"CN(c1cc2c(cn1)ncn2C)c1ccc(C#N)cc1F [D, reference compound]"
2,> 500,"CN(c1ccc2ncn(C)c2c1)c1ccc(C#N)cc1F [C, 3-fluoro-4-[methyl-(3-methylbenzimidazol-5-yl)amino]benzonitrile, reference compound]"

# Same assay, conditions: Illustrative Compounds of the invention (Table VII)
row,Compound,IC50 [nM]
1,"CCc1cc(C#N)ccc1Oc1cc(NC(=O)[C@H]2C[C@H]2F)c2ncn(C)c2c1 [Cpd 10, (1R,2R)-N-[6-(4-cyano-2-ethyl-phenoxy)-1-methyl-benzimidazol-4-yl]-2-fluoro-cyclopropanecarboxamide]",0.1 to 50
2,"CCc1cc(C#N)cc(F)c1Nc1cc(NC(=O)C2CC2)c2ncn(C)c2c1 [Cpd 2, N-(6-(4-cyano-2-ethyl-6-fluorophenylamino)-1-methyl-1H-benzo[d]imidazol-4-yl)cyclopropanecarboxamide]",0.1 to 50
3,"CCS(=O)(=O)c1ccc(N(C)c2cc(NC(=O)[C@H]3C[C@H]3F)c3ncn(C)c3c2)c(C)c1 [Cpd 27, (1R,2R)-N-[6-(4-ethylsulfonyl-N,2-dimethyl-anilino)-1-methyl-benzimidazol-4-yl]-2-fluoro-cyclopropanecarboxamide]",100 to 500
4,"Cc1cc(S(C)(=O)=O)ccc1N(C)c1cc(NC(=O)[C@H]2C[C@H]2F)c2ncn(C)c2c1 [Cpd 26, (1R,2R)-N-[6-(N,2-dimethyl-4-methylsulfonyl-anilino)-1-methyl-benzimidazol-4-yl]-2-fluoro-cyclopropanecarboxamide]",50 to 100
5,"Cc1cc(C#N)ncc1Oc1cc(NC(=O)N2CCOCC2)c2ncn(C)c2c1 [Cpd 37, N-[6-[(6-cyano-4-methyl-3-pyridyl)oxy]-1-methyl-benzimidazol-4-yl]morpholine-4-carboxamide]",> 500
6,"Cc1cc(S(C)(=O)=O)cc(F)c1N(C)c1cc(NC(=O)[C@H]2C[C@H]2F)c2ncn(C)c2c1 [Cpd 16, (1R,2R)-2-fluoro-N-[6-(2-fluoro-N,6-dimethyl-4-methylsulfonyl-anilino)-1-methyl-benzimidazol-4-yl]cyclopropanecarboxamide]",0.1 to 50
7,"CN(c1cc(NC(=O)[C@H]2C[C@H]2F)c2ncn(C)c2c1)c1c(F)cc(C#N)cc1Cl [Cpd 11, (1R,2R)-N-[6-(2-chloro-4-cyano-6-fluoro-N-methyl-anilino)-1-methyl-benzimidazol-4-yl]-2-fluoro-cyclopropanecarboxamide]",0.1 to 50
8,"Cc1cc(C#N)ncc1Oc1cc(N)c2ncn(C)c2c1 [Cpd 28, 5-(7-amino-3-methyl-benzimidazol-5-yl)oxy-4-methyl-pyridine-2-carbonitrile]",> 500
9,"Cc1cc(C(N)=O)ncc1Oc1cc(NC(=O)[C@H]2C[C@H]2F)c2ncn(C)c2c1 [Cpd 32, 5-[7-[[(1R,2R)-2-fluorocyclopropanecarbonyl]amino]-3-methyl-benzimidazol-5-yl]oxy-4-methyl-pyridine-2-carboxamide]",50 to 100
10,"CN(c1cc(NC(=O)[C@H]2C[C@H]2F)c2ncn(C)c2c1)c1ccc(S(C)(=O)=O)cc1F [Cpd 17, (1R,2R)-2-fluoro-N-[6-(2-fluoro-N-methyl-4-methylsulfonyl-anilino)-1-methyl-benzimidazol-4-yl]cyclopropanecarboxamide]",> 500

# Next, values leading:
row,IC50 [nM],Compound
1,> 500,"Cc1cc(C#N)ncc1Oc1cc(NC(=O)N2CC(O)C2)c2ncn(C)c2c1 [Cpd 36, N-[6-[(6-cyano-4-methyl-3-pyridyl)oxy]-1-methyl-benzimidazol-4-yl]-3-hydroxy-azetidine-1-carboxamide]"
2,0.1 to 50,"CCc1cc(S(C)(=O)=O)ncc1N(C)c1cc(NC(=O)C2CC2)c2ncn(C)c2c1 [Cpd 18, N-[6-[(4-ethyl-6-methylsulfonyl-3-pyridyl)-methyl-amino]-1-methyl-benzimidazol-4-yl]cyclopropanecarboxamide]"
3,0.1 to 50,"Cc1cc(C#N)nc(F)c1N(C)c1cc(NC(=O)[C@H]2C[C@H]2F)c2ncn(C)c2c1 [Cpd 21, (1R,2R)-N-[6-[(6-cyano-2-fluoro-4-methyl-3-pyridyl)-methyl-amino]-1-methyl-benzimidazol-4-yl]-2-fluoro-cyclopropanecarboxamide]"
4,0.1 to 50,"CCc1cc(C#N)ncc1N(C)c1cc(NC(=O)OC)c2ncn(C)c2c1 [Cpd 4, methyl 6-((6-cyano-4-ethylpyridin-3-yl)(methyl)amino)-1-methyl-1H-benzo[d]imidazol-4-ylcarbamate]"
5,0.1 to 50,"CCc1cc(C#N)ncc1Oc1cc(NC(=O)[C@H]2C[C@H]2F)c2ncn(C)c2c1 [Cpd 6, (1R,2R)-N-[6-[(6-cyano-4-ethyl-3-pyridyl)oxy]-1-methyl-benzimidazol-4-yl]-2-fluoro-cyclopropanecarboxamide]"
6,0.1 to 50,"CCc1cc(C#N)ncc1N(C)c1cc(NC(=O)[C@H]2C[C@H]2F)c2ncn(C)c2c1 [Cpd 8, (1R,2R)-N-(6-((6-cyano-4-ethylpyridin-3-yl)(methyl)amino)-1-methyl-1H-benzo[d]imidazol-4-yl)-2-fluorocyclopropanecarboxamide]"
7,0.1 to 50,CNC(=O)Nc1cc(Oc2cnc(C#N)cc2C)cc2c1ncn2C
8,50 to 100,"Cc1cc(C#N)ncc1Oc1cc(NC(=O)[C@H]2C[C@H]2F)c2ncn(C)c2c1 [Cpd 20, (1R,2R)-N-[6-[(6-cyano-4-methyl-3-pyridyl)oxy]-1-methyl-benzimidazol-4-yl]-2-fluoro-cyclopropanecarboxamide]"
9,50 to 100,"CN(c1cc(NC(=O)[C@H]2C[C@H]2F)c2ncn(C)c2c1)c1ccc(C#N)nc1F [Cpd 14, (1R,2R)-N-[6-[(6-cyano-2-fluoro-3-pyridyl)-methyl-amino]-1-methyl-benzimidazol-4-yl]-2-fluoro-cyclopropanecarboxamide]"
10,0.1 to 50,"Cc1cc(C#N)ncc1N(C)c1cc(NC(=O)[C@H]2C[C@H]2F)c2ncn(C)c2c1 [Cpd 9, (1R,2R)-N-(6-((6-cyano-4-methylpyridin-3-yl)(methyl)amino)-1-methyl-1H-benzo[d]imidazol-4-yl)-2-fluorocyclopropanecarboxamide]"
11,50 to 100,"Cc1cc(F)ncc1N(C)c1cc(NC(=O)[C@H]2C[C@H]2F)c2ncn(C)c2c1 [Cpd 12, (1R,2R)-2-fluoro-N-[6-[(6-fluoro-4-methyl-3-pyridyl)-methyl-amino]-1-methyl-benzimidazol-4-yl]cyclopropanecarboxamide]"
12,0.1 to 50,"CCc1cc(C(N)=O)ncc1N(C)c1cc(NC(=O)C2CC2)c2ncn(C)c2c1 [Cpd 24, 5-((4-(cyclopropanecarboxamido)-1-methyl-1H-benzo[d]imidazol-6-yl)(methyl)amino)-4-ethylpicolinamide]"
13,0.1 to 50,"CCc1cc(C#N)cc(F)c1N(C)c1cc(NC(=O)OC)c2ncn(C)c2c1 [Cpd 5, methyl 6-((4-cyano-2-ethyl-6-fluorophenyl)(methyl)amino)-1-methyl-1H-benzo[d]imidazol-4-ylcarbamate]"
14,0.1 to 50,"CCc1cc(C(N)=O)ncc1N(C)c1cc(NC(=O)[C@H]2C[C@H]2F)c2ncn(C)c2c1 [Cpd 25, 4-ethyl-5-((4-((1R,2R)-2-fluorocyclopropanecarboxamido)-1-methyl-1H-benzo[d]imidazol-6-yl)(methyl)amino)picolinamide]"
15,100 to 500,"Cc1cc(C#N)ncc1Oc1cc(NC(=O)NC(C)C)c2ncn(C)c2c1 [Cpd 38, 1-[6-[(6-cyano-4-methyl-3-pyridyl)oxy]-1-methyl-benzimidazol-4-yl]-3-isopropyl-urea]"
